From patent US20250353827A1, “INDOLINE DERIVATIVES AS SEROTONERGIC AGENTS USEFUL FOR THE TREATMENT OF DISORDERS RELATED THERETO” (MINDSET PHARMA INC., priority 2022, published 2025)
pEC50: −log10 of the molar value. Where “and” joins values, the source holds several entries; their conditions need not be identical. Equal values may be shown once. Read-outs that look alike come from different tables or passages of the source.

What was measured:
[1] = Liver microsomes stability, human; settings: for Predicted hepatic CL: human liver microsomes
Experimental: (§1) The objective of this study was to estimate in vitro metabolic stability of representative compounds of the application in pooled human and male mouse liver microsomes. The concentrations of parent compounds in reaction systems were evaluated by LC-MS/MS for estimating the stability in pooled human and male mouse liver microsomes. The in vitro intrinsic clearances of test compounds were determined as well.
(§2) A master solution in the “Incubation Plate” containing phosphate buffer, ultra-pure H2O, MgCl2 solution and liver microsomes was made according to Table 3. The mixture was pre-warmed at 37° C. water bath for 5 minutes.
(§3) 40 μL of 10 mM NADPH solution was added to each well. The final concentration of NADPH was 1 mM. The negative control samples were prepared by replacing NADPH with 40 μL of ultra-pure H2O. Samples were prepared in duplicate. Negative controls were prepared in singlet.
(§4) The reaction was started with the addition of 4 μL of 200 μM test compounds or control compounds to each master solution to get the final concentration of 2 μM. This study was performed in duplicate.
(§5) Aliquots of 50 μL were taken from the reaction solution at 0, 15, 30, 45 and 60 minutes. The reaction solutions were stopped by the addition of 4 volumes of cold methanol with IS (100 nM alprazolam, 200 nM imipramine, 200 nM labetalol and 2 μM ketoprofen). Samples were centrifuged at 3,220 g for 40 minutes. Aliquot of 90 μL of the supernatant was mixed with 90 μL of ultra-pure H2O and then was used for LC-MS/MS analysis.
(§6) LC/MS analysis was performed for all samples from this study using a Shimadzu liquid chromatograph separation system equipped with degasser DGU-20A5R; solvent delivery unit LC-30AD; system controller SIL-30AC; column oven CTO-30A; CTC Analytics HTC PAL System. Mass spectrometric analysis was performed using a Triple Quad™ 5500 instrument.
(§7) All calculations were carried out using Microsoft Excel. Peak areas were determined from extracted ion chromatograms. The slope value, k, was determined by linear regression of the natural logarithm of the remaining percentage of the parent drug vs. incubation time curve.
(§8) The in vitro half-life (in vitro t1/2) was determined from the slope value:
(§9) Conversion of the in vitro t1/2 (min) into the in vitro intrinsic clearance (in vitro CLint, in μL/min/mg proteins) was done using the following equation (mean of duplicate determinations): […]

[2] = Liver microsomes stability, mouse
Experimental: as §1, §2, §3, §4, §5, §6, §7, §8, §9

[3] = biological target: T1, human 5-HT2A (h5-HT2A) receptor (Homo sapiens, UniProt P28223); assay: FLIPR assay, human 5-HT2A receptor under agonist mode; assay type: cell-based; settings: for RFU@10 μM: RFU=Fmax−Fmin
T1 construct: expressed in transfected cells; cultured under G418 and hygromycin B selection
T1 sequence (P28223 whole entry): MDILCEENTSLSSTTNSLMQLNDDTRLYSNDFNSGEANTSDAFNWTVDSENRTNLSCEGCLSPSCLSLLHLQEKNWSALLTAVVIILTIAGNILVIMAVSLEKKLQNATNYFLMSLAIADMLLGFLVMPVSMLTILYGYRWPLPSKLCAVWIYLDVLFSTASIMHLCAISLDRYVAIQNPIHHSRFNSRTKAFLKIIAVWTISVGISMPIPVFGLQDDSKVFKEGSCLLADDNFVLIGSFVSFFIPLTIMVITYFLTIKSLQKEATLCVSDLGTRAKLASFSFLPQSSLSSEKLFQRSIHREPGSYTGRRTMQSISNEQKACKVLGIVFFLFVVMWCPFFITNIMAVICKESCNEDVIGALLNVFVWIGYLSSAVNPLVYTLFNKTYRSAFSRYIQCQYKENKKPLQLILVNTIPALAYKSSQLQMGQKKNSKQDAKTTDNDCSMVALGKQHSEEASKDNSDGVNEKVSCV
Experimental: I. Assessment of the Effect of Exemplary Compounds of Formula I Targeting on Human 5-HT2A (h5-HT2A) Receptor Under Agonist Mode
• 1. Cells were cultured in cell culture medium (DMEM containing 10% FBS, 1×penicillin-streptomycin 300 μg/ml G418 and 100 μg/ml hygromycin B) at 37° C., 5% (v/v) CO2. • 2. One day before the assays, the cells were detached using TrypLE™ Express and cells were counted using cell counter. Only cells with >85% viability were used for the assay. • 3. 20000 cells/well were seeded in 30 μl/well culture medium to a 384-well cell plate and cells were incubated overnight at 37° C., 5% (v/v) CO2. • 4. On the assay day, 2×dye solution was prepared following the manual of the FLIPR® Calcium 6 Assay Kit: i. The dye was diluted with assay buffer (20 mM HEPES in 1× HBSS, PH7.4); ii. Probenecid was added to the final concentration of 5 mM; iii. Vortex vigorously for 1-2 minutes. • 5. Medium was removed from cell plate by flicking the cell plate on towel papers. • 6. 10 μl of assay buffer and 10 μl of 2×dye solution was added to each well of the cell plate. • 7. The cell plate was placed on plate shaker, the plate was agitated at 600 rpm for 2 minutes. The plate was incubated at 37° C. for 2 hours followed by additional 15-minute incubation at 25° C. • 8. 3×compound in assay buffer was prepared: a. Reference compounds were diluted to required concentration with DMSO. The compounds were added to a 384-well compound plate; b. Serial dilutions were performed; c. 10 mM test compounds were added to the compound plate, and 3-fold serial dilutions were performed. d. Transfer 60 nl/well of compounds from source plate to a 384-well compound plate (Corning, 3657) by using an Echo; e. Add 20 μl/well assay buffer to the compound plate; f. Mix the plate on plate shaker for 2 mins; • 9. The cell plate, compound plate and tips were put into FLIPR, 10 μl of 3× compound was transferred to the cell plate per well with FLIPR.
• i. The normalized fluorescence reading (RFU) was calculated as shown below, where Fmax and Fmin stand for maximum and minimum of calcium signal during defined time window: RFU=Fmax−Fmin. • ii. Calculate the percentage activation using following equation:
[formula] • Iii. Calculate EC50 by fitting % activation against log of compound concentrations with Hill equation using XLfit.
Exemplary compounds of Formula I were evaluated functionally using FLIPR assay for their effect on h5-HT2A receptor under agonist mode.

[4] = Liver microsomes stability, rat
Male, C57BL/6J mice = assay: Mouse head twitch; assay type: in vivo; settings: for head twitches (mean): counted over 1 hr, male C57BL/6J mice; for other behavioural signs (locomotion, core body temperature, 5-HT syndrome) in words: psilocybin 3 and 10 mg/kg, 5-MeO DMT 3-30 mg/kg, II-1 0.3-30 mg/kg
Experimental: The effect of different doses of representative compounds of Formula I were evaluated on head-twitch response (HTR) and other behavioural responses as behavior-based models of psychedelic activity.
Male, C57BL/6J mice (body weight range 20-30 g) were dosed with the appropriate dose of test article, and following a 1-minute pre-treatment time, placed in individual observation chambers. Animals were visually assessed for the incidence head twitches continuously over a 1 hr period. Head twitches were defined as a rapid jerk of the head which was not elicited by an external tactile stimulus (Come and Pickering, Psychopharmacologia, 1967, 11(1): 65-78). Each head twitch was individually counted by a trained observer, and the data was expressed as the mean±SEM of 6-10 mice per group. Mice were used in a single experiment only.
The head twitch response of exemplary compound II-1 (1-30 mg/kg SC) was compared to 5-MeO DMT and psilocybin (FIG. 1, Table 6).

## CN(C)CCC1CNc2ccccc21 (centres unmarked) [II-2, 2-(Indolin-3-yl)-N,N-dimethylethan-1-amine]
[1]
  Predicted hepatic CL: 9.09 mL/min/kg
[1]; human, With NADPH, 0 min
  Remaining Percentage: 100.00%
[1]; human, With NADPH, 30 min
  Remaining Percentage: 87.48%
[1]; human, With NADPH, 60 min
  Remaining Percentage: 67.85%
[1]; human, Without NADPH, 0 min
  Remaining Percentage: 100.00%
[1]; human, Without NADPH, 30 min
  Remaining Percentage: 100.69%
[1]; human, Without NADPH, 60 min
  Remaining Percentage: 86.47%
[1]; human, pooled liver microsomes
  CLint scaled at 2 μM: 16.2 mL/min/kg
  half-life at 2 μM: 107 min
  microsomal CLint at 2 μM: 12.9 µL/min/mg
[2]; male, mouse, microsomes
  CLint scaled at 2 μM: 165 mL/min/kg
  half-life at 2 μM: 36.7 min
  microsomal CLint at 2 μM: 37.7 µL/min/mg
[2]; mouse liver microsomes
  Predicted hepatic CL: 58.25 mL/min/kg
[2]; mouse, With NADPH, 0 min
  Remaining Percentage: 100.00%
[2]; mouse, With NADPH, 30 min
  Remaining Percentage: 57.37%
[2]; mouse, With NADPH, 60 min
  Remaining Percentage: 32.23%
[2]; mouse, Without NADPH, 0 min
  Remaining Percentage: 100.00%
[2]; mouse, Without NADPH, 30 min
  Remaining Percentage: 99.08%
[2]; mouse, Without NADPH, 60 min
  Remaining Percentage: 86.24%
[3]; 5-HT2A (FLIPR)
  RFU@10 μM: 544
[3]; 5-HT2A (FLIPR), read-out: EC50
  pEC50: 5.91
[4]; rat, With NADPH, 0 min
  Remaining Percentage: 100.00%
[4]; rat, With NADPH, 30 min
  Remaining Percentage: 26.32%
[4]; rat, With NADPH, 60 min
  Remaining Percentage: 10.29%
[4]; rat, Without NADPH, 0 min
  Remaining Percentage: 100.00%
[4]; rat, Without NADPH, 30 min
  Remaining Percentage: 92.41%
[4]; rat, Without NADPH, 60 min
  Remaining Percentage: 83.54%
[4]; rat, liver microsomes
  CLint scaled at 2 μM: 136 mL/min/kg
  Predicted hepatic CL: 39.25 mL/min/kg
  half-life at 2 μM: 18.3 min
  microsomal CLint at 2 μM: 75.8 µL/min/mg

## COc1cc2c(cc1OC)C(CCN(C)C)CN2 (centres unmarked) [Compound I-33, 2-(5,6-Dimethoxyindolin-3-yl)-N,N-dimethylethan-1-amine]
[3]; 5-HT2A (FLIPR)
  RFU@10 μM: 286

## COc1ccc2[nH]cc(CCN(C)C)c2c1 [5-MeO DMT]
Male, C57BL/6J mice; 1 mg/kg SC
  head twitches (mean): 3.0
Male, C57BL/6J mice; 3 mg/kg SC
  head twitches (mean): 4.2
Male, C57BL/6J mice; 10 mg/kg SC
  head twitches (mean): 7.8
Male, C57BL/6J mice; 30 mg/kg SC
  head twitches (mean): 12.3
Male, C57BL/6J mice; SC, dose range as in the sentence
  head twitch response (in words): monotonic increase in head twitches
Male, C57BL/6J mice; SC
  other behavioural signs (locomotion, core body temperature, 5-HT syndrome) in words: behavioural signs associated with 5-HT syndrome

## CN(C)CCc1c[nH]c2cccc(O)c12 [Psilocin, psilocin, reference compound]
[3]; 5-HT2A (FLIPR)
  RFU@10 μM: 416 and 308

## COc1ccc2c(c1)C(CCN(C)C)CN2C (centres unmarked) [Compound I-3, 2-(5-Methoxy-1-methylindolin-3-yl)-N,N-dimethylethan-1-amine]
[3]; 5-HT2A (FLIPR)
  RFU@10 μM: 1014
[3]; 5-HT2A (FLIPR), read-out: EC50
  pEC50: 6.39

## O=C(O)Cc1ccccc1Nc1c(Cl)cccc1Cl [Diclofenac]
[1]
  Predicted hepatic CL: 18.43 mL/min/kg
[1]; human, With NADPH, 0 min
  Remaining Percentage: 100.00%
[1]; human, With NADPH, 30 min
  Remaining Percentage: 4.80%
[1]; human, With NADPH, 60 min
  Remaining Percentage: 1.80%
[1]; human, Without NADPH, 0 min
  Remaining Percentage: 100.00%
[1]; human, Without NADPH, 30 min
  Remaining Percentage: 91.86%
[1]; human, Without NADPH, 60 min
  Remaining Percentage: 91.86%
[2]; male, mouse, microsomes
  half-life at 2 μM: 43.9 min
  microsomal CLint at 2 μM: 31.6 µL/min/mg
[2]; mouse liver microsomes
  Predicted hepatic CL: 54.52 mL/min/kg
  Scaled-up CLint: 138.28 mL/min/kg
[2]; mouse, With NADPH, 0 min
  Remaining Percentage: 100.00%
[2]; mouse, With NADPH, 30 min
  Remaining Percentage: 51.50%
[2]; mouse, With NADPH, 60 min
  Remaining Percentage: 38.74%
[2]; mouse, Without NADPH, 0 min
  Remaining Percentage: 100.00%
[2]; mouse, Without NADPH, 30 min
  Remaining Percentage: 105.81%
[2]; mouse, Without NADPH, 60 min
  Remaining Percentage: 102.49%
[4]; rat liver microsomes, 2 μM, 0.5 mg/mL
  T1/2: 14.62 min
[4]; rat, With NADPH, 0 min
  Remaining Percentage: 100.00%
[4]; rat, With NADPH, 30 min
  Remaining Percentage: 10.72%
[4]; rat, With NADPH, 60 min
  Remaining Percentage: 5.82%
[4]; rat, Without NADPH, 0 min
  Remaining Percentage: 100.00%
[4]; rat, Without NADPH, 30 min
  Remaining Percentage: 100.00%
[4]; rat, Without NADPH, 60 min
  Remaining Percentage: 96.90%
[4]; rat, liver microsomes
  Predicted hepatic CL: 41.66 mL/min/kg
  microsomal CLint at 2 μM: 94.8 µL/min/mg

## CN(C)CCc1c[nH]c2cccc(OP(=O)(O)O)c12 [psilocybin]
Male, C57BL/6J mice; 0.1 mg/kg SC
  head twitches (mean): 4.8
Male, C57BL/6J mice; 0.3 mg/kg SC
  head twitches (mean): 6.3
Male, C57BL/6J mice; 1 mg/kg SC
  head twitches (mean): 16.3
Male, C57BL/6J mice; 3 mg/kg SC
  head twitches (mean): 7.8
Male, C57BL/6J mice; 10 mg/kg SC
  head twitches (mean): 5.5
Male, C57BL/6J mice; SC, 0.1-10 mg/kg tested
  dose at which head twitch response reached a peak: 1 mg/kg
Male, C57BL/6J mice; SC
  other behavioural signs (locomotion, core body temperature, 5-HT syndrome) in words: decreased locomotion and decreased core body temperature

## CN(C)CCc1c[nH]c2ccccc12 [DMT, N,N-dimethyltryptamine, reference compound]
[3]; 5-HT2A (FLIPR)
  RFU@10 μM: 381
[3]; EC50, 5-HT2A (FLIPR)
  pEC50: 6.44
